Measured values: patent US20220010283A1, “METHOD FOR PRODUCING PLURIPOTENT STEM CELL HAVING RELEASED DIFFERENTIATION RESISTANCE TO MESENDODERM” (Kyoto University, priority 2018, published 2022)

Legend:
[1] = system: human iPS cell line AK5 (hPSC1); assay: Differentiation into hematopoietic progenitor cells by the PSC-Sac method (CD34+CD43+ cell count); format: cell-based; details: PSCs maintained on LM511, CHIR99021 6 nM added from 4, 3, 2 or 1 day before start of differentiation induction; vs DMSO (FIG. 2)
Experimental: PSCs were cultured according to the previous report on various laminin E8 fragments under feeder-free conditions (Nakagawa et al., Scientific Reports, 4: 3954, 2014). Among the recombinant laminin E8 fragments used, LM511 E8 was iMatrix-511/iMatrix-511 silk (Nippi, Ibaraki, Japan), and other laminin E8 (LM421/121) fragments were provided by Dr. Kiyotoshi Sekiguchi (Institute for Protein Research, Osaka University). Each laminin fragment was added to 0.5 μg/cm^2 relative to the dish bottom area. In the laminin dilution experiment, coating was performed in the same manner as described above under the conditions of [x½], [x¼], [x⅛], [x 1/16], wherein [x1] is Laminin 511E8 0.5 μg/cm^2 condition. […]
As a method for performing blood cell differentiation from PSCs, the PSC-Sac method, which is a co-culture method with mouse interstitial cell C3H10TR, was used (Takayama and Eto Methods Mol Biol. 2012; 788:205-17, Takaayama et al. J Exp Med. 2010 207(13): 2817-2830). […] After confirmation of the absence of intercellular adhesion, the cells were detached from the dish with Cell scraper, and the number of the cells was counted with Trypan Blue and a hemocytometer. […]
The number of the cells was counted with Trypan Blue and a hemocytometer. […] For the measurement of hPSCs, TRA-1-60 positive cells were measured. […]

human iPS cell line AK5 = assay: Intracellular staining and flow cytometry of pluripotency markers SOX2 and OCT3/4; format: cell-based; details: PSCs maintained in LM511 with CHIR99021 added; immediately before initiation of differentiation (FIG. 7)
Experimental: To detect pluripotency markers SOX2 and OCT3/4, intracellular staining was performed by flow cytometry. Briefly, dead cell staining was performed using Zombie (trade s mark) Aqua Fixable Viability Kit (BioLegend, San Diego, Calif., USA). After washing, the cells were fixed by allowing to stand for 15 min at room temperature with PerFix-nckit Reagent1. Successively, the cells were subjected to a permeation treatment by fixing with ice-cooled 100% methanol for 5 min, and incubating for 10 min at room temperature with 0.5% saponin. The cells were washed and suspended in PBS (containing 3% FBS), V450 Mouse anti-Sox2 and Alexa Fluor (registered trade mark) 488 conjugated Mouse anti-OCT3/4 (BD biosciences, Bedford, Mass., USA) was added, and the mixture was incubated on ice for 30 min. Excessive antibody was washed away and analysis was performed with FACSVerse (trade mark) (BD Biosciences).

## Cc1c[nH]c(-c2cnc(NCCNc3ccc(C#N)cn3)nc2-c2ccc(Cl)cc2Cl)n1 [CHIR99021, 6-[2-[4-(2,4-Dichlorophenyl)-5-(4-methyl-1H-imidazol-2-yl)pyrimidin-2-ylamino]ethylamino]pyridine-3-carbonitrile]
[1]
  number of hematopoietic progenitor cells: the number of hematopoietic progenitor cells could be increased
Human iPS cell line AK5
  number of cells maintaining positive pluripotency for both OCT3/4 and SOX2: decreased
